Entries after “also recorded” stand apart in the source; their conditions may differ.
Legend:
melanoma cell lines = details: histamine and IL-2 given prior to inoculation; cited from earlier work
[1] = system: herpes simplex virus (HSV); details: cited from earlier work
[2] = system: peripheral blood lymphocytes; assay: Oxidant-induced cell death in lymphocytes incubated with mononuclear phagocytes or hydrogen peroxide, flow cytometry; type: cell-based, human
Protocol: Peripheral venous blood was obtained as freshly prepared leukopacks from healthy blood donors at the Blood Centre, Sahlgren's Hospital, Göteborg, Sweden, to study the activation characteristics of cytotoxic lymphocytes in the presence and absence of MO, and ROM inhibitors. The blood (65 ml) was mixed with 92.5 ml Iscove's medium, 35 ml 6% Dextran (Kabi Pharmacia, Stockholm, Sweden) and 7.5 ml acid citrate dextrose (ACD) (Baxter, Deerfield, Ill.). After incubation for 15 minutes at room temperature, the supernatant was carefully layered onto Ficoll-Hypaque (Lymphoprep, Myegaard, Norway). Mononuclear cells (MNC) were collected at the interface after centrifugation at 380 g for 15 minutes at room temperature, washed twice in PBS and resuspended in Iscove's medium supplemented with 10% human AB^+ serum. During all further separation of cells, the cell suspensions were kept in siliconized test tubes (Vacuette, Greiner, Stockholm).
The MNC were further separated into lymphocyte and monocyte (MO) populations using the counter-current centrifugal elutriation (CCE) technique originally described by Yasaka and co-workers (Yasaka, T. et al., J. Immunol., 127:1515) with modifications as described in Hansson, M., et al. (J. Immunol., 156: 42 (1996); hereby incorporated by reference). Briefly, the sedimentation rate of cells in a spinning rotor was balanced by a counter-directed flow through the chamber. By slowly increasing the flow rate, fractions of cells of well-defined sizes were collected. The MNC were resuspended in elutration buffer containing 0.5% BSA (ICN Biomedicals Inc., Aurora, Ohio) and 0.1% EDTA (VWR, Göteborg, Sweden) in buffered NaCl and fed into a Beckman J2-21 ultracentrifuge with a JE-6B rotor (Bechman Coulter Inc., Fullerton, Calif.) at 2100 rpm. A fraction with >90% MO was obtained at a flow rate of 19 ml/min. A lymphocyte fraction enriched for NK-cells (CD3^−/56^+ phenotype) and T-cells (CD3^+/56^−) was recovered at flow rates of 14-15 ml/min. This fraction contained <3% MO and consisted of CD3ε^−/56^+ NK-cells (45-50%), CD3ε^+/56^− T-cells (35-40%), CD3ε^−/56^− cells (5-10%), and CD3ε^+/56^+ cells (1-5%), as judged by flow cytometry. In some experiments, dynabeads (Dynal A/S, Oslo, Norway) coated with anti-CD56 were used to obtain purified lymphocyte preparations of T-cells, as described in detail by Hansson, M., et al., incorporated above.
Briefly, lymphocytes were incubated overnight with autologous mononuclear phagocytes in the presence or absence of catalase (200 U/ml), histamine ([…]) or DPI (3 μM).
Briefly, lymphocytes, pretreated with PJ34 (250 ηM), Z-VAD.fmk (100 μM) or medium, were subjected to mononuclear phagocytes at different Mo/Ly ratios (FIG. 5A) or to different concentrations of H2O2 (FIG. 5C). FIGS. 5A-5D illustrate that PJ34 protected lymphocytes from cell death induced by phagocytes ([…], ratio 1:1, p<0.05) and hydrogen peroxide (FIGS. 5C and 5D, 250 μM, p<0.001).

NK cells [3] = details: histamine and IL-2; cited from earlier work
NK cells [4] = details: cited from earlier work
lymphocytes = assay: Altered mitochondrial transmembrane potential (Mitochondrial Membrane Sensor Kit) and To-Pro-3 staining; type: cell-based, human; details: H2O2 250 μM or mononuclear phagocytes; PJ34 250 μM as printed
Protocol: A Mitochondrial Membrane Sensor Kit (BD Clontech) was used to identify cells with altered mitochondrial transmembrane potential according to the manufacturer's protocol.
Briefly, lymphocytes exposed to hydrogen peroxide (250 μM) were assayed for altered mitochondrial transmembrane potential and plasma membrane integrity at various time points. Depolarization of the Ψm is seen as an increase in green fluorescence (mitosensor monomers).

human lymphocytes = assay: Large-scale DNA fragmentation, pulsed-field gel electrophoresis; type: cell-based; details: cells treated with Z-VAD.fmk and 250 μM H2O2, 16 hours
Protocol: Translocation of AIF to the nucleus has been associated with large-scale DNA fragmentation. The observed accumulation of nuclear AIF after challenge with H2O2 led to investigation as to whether large-scale DNA fragmentation accompanied lymphocyte cell death. To that end, lymphocytes were exposed to H2O2, cast into agarose plugs and analyzed using pulsed-field gel electrophoresis. Briefly, human lymphocytes were exposed to 250 μM H2O2 and incubated overnight at 37° C. After 16 hours, the cells were washed twice with PBS and resuspended in PBS. Cells were mixed with an equal volume of 2% low melting point agarose and cast into agarose plugs. After solidifying, plugs were incubated overnight at 56° C. in a buffer containing 0.2% Sodium deoxycholate and 0.5% N-lauroyl sarcosine supplemented with 0.5 mg/ml proteinase K.

In the case of `NCCc1c[nH]cn1` [histamine], the “development of lung metastatic foci” value (melanoma cell lines) is listed as “protected”, the “survival time, combination” value ([1]; combination of histamine and IL-2) is listed as “synergistic effect” and the survival time ([1]; single dose of histamine) is listed as “prolong survival time”. The “protection of lymphocytes from phagocyte-induced cell death (FIG. 1)” value ([2]; overnight with autologous mononuclear phagocytes, catalase 200 U/ml, histamine, DPI 3 μM, p<0.001, n=4) was “fully protected”, the “granulocyte mediated NK cell suppression” value (NK cells [3]) was “only partially removed” and the “monocyte mediated NK cell suppression” value (NK cells [4]; histamine and IL-2) was “complete or nearly complete abrogation”. For the same compound, the NK cell cytotoxicity (NK cells [4]; histamine and IL-2 in the presence of monocytes, relative to IL-2 only) was “elevated levels of cytotoxicity” and the “effect on NK mediated cytotoxicity” value (NK cells [4]; in the absence of monocytes) was “no effect or weakly suppressed”.
For Z-VAD.fmk, the “protection from oxidant-induced alterations of Ψm (FIG. 4)” value (lymphocytes) was “failed to display any significant protective effect”, the “protection of lymphocytes from phagocyte- or hydrogen peroxide-induced (oxidant/ROS-induced) cell death / apoptosis” value ([2]; pretreatment, PJ34 250 nM, DPQ 3 μM, Z-VAD.fmk 100 μM, overnight incubation with phagocytes or H2O2) was “only partially protected; also recorded: failed to protect” and the “DNA fragments on pulsed-field gel (FIG. 7)” value (human lymphocytes) was “distinct band (approx. 50 kb)”.

From patent US20060079510A1, “Use of PARP-1 inhibitors for protecting tumorcidal lymphocytes from apoptosis” (priority 2004, published 2006)
